Assay results taken from patent US20240409556A1, “BENZOPIPERAZINE AND RELATED ANALOGS FOR INHIBITING YAP/TAZ-TEAD” (Springworks Therapeutics, Inc., priority 2023, published 2024).

Each molecule was assayed on YAP/TAZ-TEAD transcription (assay: Reporter gene assay for measuring the inhibition of YAP/TAZ-TEAD transcription (TEAD-responsive element luciferase reporter in Hek293T cells)). Conditions: 24 hours incubation.
Assay type: cell-based
Experimental: Example 56: Activity of Compounds of the Disclosure in a Reporter Gene Assay for Measuring the Inhibition of YAP/TAZ-TEAD Transcription
Hek293T cells were cultured in DMEM supplemented with 10% fetal bovine serum, Sodium pyruvate, Sodium bicarbonate, L-glutamine. The cells were harvested and transiently transfected with TEAD-responsive element luciferase reporter. Transfected cells were plated in 384-well plate containing pre-diluted compounds. After 24 hours incubation at 37° C./5% CO2, assay plates were cooled to room temperature and levelled to an equal volume per well, prior to the addition of 25 uL luciferase substrate SteadyLite (Perkin Elmer)/well. The plate was shaken for 10 min at 600 rpm, centrifuged for 1 min at 500 rpm and measured with an Envision reader (PerkinElmer). The amount of relative light units produced by the TEAD reporter was used to calculate the percentage of inhibition.
The percent of reporter inhibition was calculated in the presence of a positive control inhibitor (100% inhibition) versus a condition with the presence of the vehicle basal activity of the reporter (0% inhibition). The ability of a test compound to inhibit this activity was determined as: Percentage inhibition=[[…]((RLU determined in the presence of vehicle−RLU determined for sample with test compound present) divided by (RLU determined in the presence of vehicle−RLU determined for sample with positive control inhibitor))]*100.
The activities of example compounds tested are depicted in Table 3. The activity ranges A, B and C refer to IC50 values in the reporter gene assay as follows: “A”: IC50<1 μM; “B”: 1 μM≤IC50≤10 μM and “C”: IC50>10 μM; NT=not tested.

SMILES | IC50
COc1ccc2c(n1)OC(CNC(C)=O)CN2c1ccc(C(F)(F)F)cc1 (single isomer, unassigned) [73-En2, (R)- or (S)-N-((6-methoxy-1-(4-(trifluoromethyl)phenyl)-2,3-dihydro-1H-pyrido[2,3-b][1,4]oxazin-3-yl)methyl)acetamide] | < 1 µM
CC(=O)N1CC(=O)N2c3ccccc3N(c3ccc(C(F)(F)F)cc3)CC2C1 (centres unmarked) [compound 79] | < 1 µM
CC(=O)N1CCN2c3ncccc3N(c3ccc(C(F)(F)F)cc3)CC2C1 (single isomer, unassigned) [29-En2, (R)- or (S)-1-(5-(4-(trifluoromethyl)phenyl)-5,6,6a,7,9,10-hexahydro-8H-pyrazino[1,2-a]pyrido[3,2-e]pyrazin-8-yl)ethan-1-one] | < 1 µM
FC(F)(F)c1ccc(N2CC3CC(c4nnn[nH]4)CCN3c3ccccc32)cc1 (single isomer, unassigned) [121-D2, 8-(1H-tetrazol-5-yl)-5-(4-(trifluoromethyl)phenyl)-6,6a,7,8,9,10-hexahydro-5H-pyrido[1,2-a]quinoxaline] | < 1 µM
CC(=O)N1CCN2c3ncccc3N(c3ccc(C(F)(F)F)cn3)CC2C1 (centres unmarked) [53-En2, 1-(5-(5-(trifluoromethyl)pyridin-2-yl)-5,6,6a,7,9,10-hexahydro-8H-pyrazino[1,2-a]pyrido[3,2-e]pyrazin-8-yl)ethan-1-one] | > 10 µM
CC(=O)NCC1CN(c2ccc(C(F)(F)F)cc2)c2ccccc2O1 (single isomer, unassigned) [36-En2, (R)- or (S)-N-((4-(4-(trifluoromethyl)phenyl)-3,4-dihydro-2H-benzo[b][1,4]oxazin-2-yl)methyl)acetamide] | < 1 µM
CC(C)C(=O)N1CCN2c3ncccc3N(c3ccc(C(F)(F)F)cc3)CC2C1 (single isomer, unassigned) [47-En2, (R)- or (S)-2-methyl-1-(5-(4-(trifluoromethyl)phenyl)-5,6,6a,7,9,10-hexahydro-8H-pyrazino[1,2-a]pyrido[3,2-e]pyrazin-8-yl)propan-1-one] | < 1 µM
FC(F)(F)c1ccc(N2CC3CC(c4nnn[nH]4)CCN3c3ccccc32)cc1 (single isomer, unassigned) [121-D4, 8-(1H-tetrazol-5-yl)-5-(4-(trifluoromethyl)phenyl)-6,6a,7,8,9,10-hexahydro-5H-pyrido[1,2-a]quinoxaline] | < 1 µM

Same assay, conditions: Homo sapiens, HEK-293T, 24 h, 24 hours incubation

SMILES | IC50
C=CC(=O)NCC1CN(c2ccc(C(F)(F)F)cc2)c2ccccc2N1CCO (centres unmarked) [compound 1, N-((1-(2-hydroxyethyl)-4-(4-(trifluoromethyl)phenyl)-1,2,3,4-tetrahydroquinoxalin-2-yl)methyl)acrylamide] | < 1 µM
CNS(=O)(=O)N1CCN2c3ncccc3N(c3ccc(C(F)(F)F)cc3)CC2C1 (centres unmarked) [compound 45, N-methyl-5-(4-(trifluoromethyl)phenyl)-5,6,6a,7,9,10-hexahydro-8H-pyrazino[1,2-a]pyrido[3,2-e]pyrazine-8-sulfonamide] | < 1 µM
O=C(O)CC(=O)N[C@@H]1C[C@@H]2CN(c3ccc(C(F)(F)F)cc3)c3cccnc3N2C1 [compound 94, 3-oxo-3-(((6aR,8R)-5-(4-(trifluoromethyl)phenyl)-5,6,6a,7,8,9-hexahydropyrido[3,2-e]pyrrolo[1,2-a]pyrazin-8-yl)amino)propanoic acid] | 1 to 10 µM
CN1CCN2c3ccccc3N(c3ccc(C(F)(F)F)cc3)CC2C1 (centres unmarked) [compound 26, 3-methyl-6-(4-(trifluoromethyl)phenyl)-2,3,4,4a,5,6-hexahydro-1H-pyrazino[1,2-a]quinoxaline] | 1 to 10 µM
CNS(=O)(=O)N1CCN2C(=O)CN(c3ccc(C(F)(F)F)cc3)CC2C1 (centres unmarked) [compound 72, N-methyl-6-oxo-8-(4-(trifluoromethyl)phenyl)octahydro-2H-pyrazino[1,2-a]pyrazine-2-sulfonamide] | > 10 µM
CC(=O)NCC1CN(c2ccc(C(F)(F)F)cc2)c2cccnc2S1(=O)=O (centres unmarked) [compound 58, N-((4,4-dioxido-1-(4-(trifluoromethyl)phenyl)-2,3-dihydro-1H-pyrido[2,3-b][1,4]thiazin-3-yl)methyl)acetamide] | > 10 µM
C=CC(=O)N1CCN2c3nccnc3N(c3ccc(C(F)(F)F)cc3)CC2C1 (centres unmarked) [compound 41, 1-(5-(4-(trifluoromethyl)phenyl)-5,6,6a,7,9,10-hexahydro-8H-dipyrazino[1,2-a:2′,3′-e]pyrazin-8-yl)prop-2-en-1-one] | < 1 µM
CC(=O)NCC1CN(c2ccc(C(F)(F)F)cc2)c2ccc(N(C)C)nc2O1 (centres unmarked) [compound 87, N-((6-(dimethylamino)-1-(4-(trifluoromethyl)phenyl)-2,3-dihydro-1H-pyrido[2,3-b][1,4]oxazin-3-yl)methyl)acetamide] | < 1 µM
CC(=O)NCC1CN(c2ccc(C(F)(F)F)cc2)c2ccccc2N1CC#N (centres unmarked) [compound 4, N-((1-(cyanomethyl)-4-(4-(trifluoromethyl)phenyl)-1,2,3,4-tetrahydroquinoxalin-2-yl)methyl)acetamide] | 1 to 10 µM
O=C1CN(c2ccc(C(F)(F)F)cc2)c2ccccc2N1Cc1cn[nH]c1 [compound 80, 1-((1H-pyrazol-4-yl)methyl)-4-(4-(trifluoromethyl)phenyl)-3,4-dihydroquinoxalin-2(1H)-one] | < 1 µM
CC(=O)NCC1CN(c2ccc(C(F)(F)F)cc2)c2ccc(C#N)nc2O1 (single isomer, unassigned) [99-En1 or 99-En2, (R)- or (S)—N-((6-cyano-1-(4-(trifluoromethyl)phenyl)-2,3-dihydro-1H-pyrido[2,3-b][1,4]oxazin-3-yl)methyl)acetamide] | 1 to 10 µM
Cc1ccc(Nc2ccc(C(F)(F)F)cc2)c(N2CCC(C(=O)O)CC2)n1 [compound 125, 1-(6-methyl-3-((4-(trifluoromethyl)phenyl)amino)pyridin-2-yl)piperidine-4-carboxylic acid] | < 1 µM
C=CC(=O)NCC1CN(c2ccc(C(F)(F)F)cc2)c2cccnc2O1 (centres unmarked) [compound 48, N-((1-(4-(trifluoromethyl)phenyl)-2,3-dihydro-1H-pyrido[2,3-b][1,4]oxazin-3-yl)methyl)acrylamide] | < 1 µM
CC(=O)NCC1CN(c2ccc(C(F)(F)F)cc2)c2ccccc2N1C (centres unmarked) [compound 19, N-((1-methyl-4-(4-(trifluoromethyl)phenyl)-1,2,3,4-tetrahydroquinoxalin-2-yl)methyl)acetamide] | 1 to 10 µM
CC1(C(=O)O)CCN2c3ccccc3N(c3ccc(C(F)(F)F)cc3)CC2C1 (stereo not drawn) [compound 114, (cis)- or (trans)-8-methyl-5-(4-(trifluoromethyl)phenyl)-6,6a,7,8,9,10-hexahydro-5H-pyrido[1,2-a]quinoxaline-8-carboxylic acid] | < 1 µM
C=CC(=O)N1CCN2CC(=O)N(c3ccc(C(F)(F)F)cc3)CC2C1 (centres unmarked) [compound 33, 8-acryloyl-2-(4-(trifluoromethyl)phenyl)-hexahydro-2H-pyrazino[1,2-a]pyrazin-3(4H)-one] | < 1 µM
NCC(=O)N[C@@H]1C[C@@H]2CN(c3ccc(C(F)(F)F)cc3)c3cccnc3N2C1 [compound 97, 2-amino-N-((6aR,8R)-5-(4-(trifluoromethyl)phenyl)-5,6,6a,7,8,9-hexahydropyrido[3,2-e]pyrrolo[1,2-a]pyrazin-8-yl)acetamide] | < 1 µM
CC(=O)NCC1CN(c2ccc(C(F)(F)F)cc2)c2ccc(C)nc2O1 (centres unmarked) [compound 77, N-((6-methyl-1-(4-(trifluoromethyl)phenyl)-2,3-dihydro-1H-pyrido[2,3-b][1,4]oxazin-3-yl)methyl)acetamide] | < 1 µM
CC(=O)NCC1CN(c2ccc(C(F)(F)F)cc2)c2cccnc2O1 (centres unmarked) [compound 49, N-((1-(4-(trifluoromethyl)phenyl)-2,3-dihydro-1H-pyrido[2,3-b][1,4]oxazin-3-yl)methyl)acetamide] | < 1 µM
CC(C)C(=O)N1CCN2c3ncccc3N(c3ccc(C(F)(F)F)cc3)CC2C1 (centres unmarked) [compound 47, 2-methyl-1-(5-(4-(trifluoromethyl)phenyl)-5,6,6a,7,9,10-hexahydro-8H-pyrazino[1,2-a]pyrido[3,2-e]pyrazin-8-yl)propan-1-one] | < 1 µM
C=CC(=O)N1CCN2c3ncccc3N(c3ccc(C(F)(F)F)cc3)CC2C1 (centres unmarked) [28-En1, 1-(5-(4-(trifluoromethyl)phenyl)-5,6,6a,7,9,10-hexahydro-8H-pyrazino[1,2-a]pyrido[3,2-e]pyrazin-8-yl)prop-2-en-1-one] | < 1 µM
C[C@@H](O)C(=O)N[C@@H]1C[C@@H]2CN(c3ccc(C(F)(F)F)cc3)c3cccnc3N2C1 [109-En1, (R)-2-hydroxy-N-((6aR,8R)-5-(4-(trifluoromethyl)phenyl)-5,6,6a,7,8,9-hexahydropyrido[3,2-e]pyrrolo[1,2-a]pyrazin-8-yl)propanamide] | < 1 µM
C=CC(=O)NCC1CN(c2ccc(C(F)(F)F)cc2)c2ccccc2N1C(C)=O (centres unmarked) [compound 18, N-((1-acetyl-4-(4-(trifluoromethyl)phenyl)-1,2,3,4-tetrahydroquinoxalin-2-yl)methyl)acrylamide] | 1 to 10 µM
C=CC(=O)N1CCN2CCN(c3ccc(C(F)(F)F)cc3)CC2C1 (centres unmarked) [compound 21, 1-(8-(4-(trifluoromethyl)phenyl)octahydro-2H-pyrazino[1,2-a]pyrazin-2-yl)prop-2-en-1-one] | < 1 µM
